{"source": "paper PMC4312198", "about": "(Biomaterials, 2014)", "key": {"SKOV-3 tumor xenograft": {"system": "SKOV-3 tumor xenograft", "test": "NIRF optical animal imaging", "set-up": "species or system mouse", "settings": "in vivo NIRF after tail vein injection"}, "[1]": {"system": "SKOV-3 ovarian cancer cells", "test": "MTS cytotoxicity and combination index, SKOV-3", "type": "cell-based, human"}, "[2]": {"system": "ES-2 ovarian cancer cells", "test": "MTS cytotoxicity and combination index, ES-2", "type": "cell-based"}, "Hela cells": {"system": "Hela cells", "test": "MTS cytotoxicity and combination index, Hela", "type": "cell-based", "settings": "72 h"}, "[3]": {"system": "SKOV3 ovarian cancer tumor", "test": "Tissue biodistribution of Pt", "type": "in vivo, mouse", "settings": "48 h post-injection, CDDP 6 mg/kg i.v."}, "mouse models": {"system": "mouse models", "settings": "mouse models ref 37, 38; cited from earlier work"}, "[4]": {"system": "SKOV-3 ovarian cancer xenografts", "test": "In vivo anticancer efficacy"}, "[5]": {"test": "Plasma pharmacokinetics of platinum"}, "[6]": {"settings": "Pt in plasma, two compartment model, i.v."}}, "data": [{"compound": "CCCCCCCCCCCCCCCCCCN1/C(=C/C=C/C=C/C2=[N+](CCCCCCCCCCCCCCCCCC)c3ccccc3C2(C)C)C(C)(C)c2ccccc21.[O-][Cl+3]([O-])([O-])[O-]", "note": "[free DiD]", "values": [{"measurement": "Tumor fluorescence in vivo", "setting": "SKOV-3 tumor xenograft", "value": "very weak tumor fluorescence"}]}, {"compound": "[NH2][Pt]([NH2])([Cl])[Cl]", "note": "[CDDP, Cisplatin]", "values": [{"measurement": "IC50, as CDDP concentration", "setting": "[1]; SKOV-3, 72 h, first figure of x/y cells", "value": 1.354, "unit": "µg/mL"}, {"measurement": "IC50, as CDDP concentration", "setting": "[2]; ES2, 72 h, first figure of x/y cells", "value": 0.92, "unit": "µg/mL"}, {"measurement": "IC50, as CDDP concentration", "setting": "Hela cells; Hela, first figure of x/y cells", "value": 2.427, "unit": "µg/mL"}, {"measurement": "Kidney/tumor ratio of Pt concentrations", "setting": "[3]", "value": 4}, {"measurement": "Liver/tumor ratio of Pt concentrations", "setting": "[3]", "value": 2}, {"measurement": "Maximum tolerated dose (MTD)", "setting": "mouse models", "value": "≤ 4", "unit": "mg/kg"}, {"measurement": "Medium survival time", "setting": "[4]; 4 mg/kg CDDP", "value": 15, "unit": "days"}, {"measurement": "Body weight loss", "setting": "[4]; 4 mg/kg CDDP i.v. day 0, 4, 8, on day 12", "value": "exceeded 20%"}, {"measurement": "WBC counting vs PBS control", "setting": "[4]; 4 mg/kg CDDP, day 7 after last injection", "value": "significantly decreased"}, {"measurement": "Animal death due to severe side effects", "setting": "[4]; 4 mg/kg CDDP, died on day 12, 13, 15, 16 and 17", "value": "all animals"}, {"measurement": "Pt of injected dose remaining in plasma", "setting": "[5]; 30 min after i.v. injection", "value": 5, "unit": "%"}, {"measurement": "Pt of injected dose remaining in plasma", "setting": "[5]; 24 h after i.v. injection", "value": "less than 1%"}, {"measurement": "CL2", "setting": "[5]; [6]", "value": 9.3217, "unit": "mL/min/kg"}, {"measurement": "t1/2α", "setting": "[5]; [6]", "value": 2.64, "unit": "min"}, {"measurement": "Clearance rate (Cl) relative to nanotherapeutics, both phases", "setting": "[5]; mouse, in vivo", "value": "20–25 fold"}]}, {"compound": "CC(=O)O[C@H]1C(=O)[C@@]2(C)[C@H]([C@H](OC(=O)c3ccccc3)[C@]3(O)C[C@H](OC(=O)[C@H](O)[C@@H](NC(=O)c4ccccc4)c4ccccc4)C(C)=C1C3(C)C)[C@]1(OC(C)=O)CO[C@@H]1C[C@@H]2O", "note": "[PTX, paclitaxel]", "values": [{"measurement": "IC50", "setting": "[1]; Homo sapiens, SK-OV-3, 72 h, read-out: IC50, as PTX concentration", "value": 0.032, "unit": "µg/mL"}, {"measurement": "IC50", "setting": "[2]; 72 h, read-out: IC50, as PTX concentration", "value": 0.055, "unit": "µg/mL"}, {"measurement": "IC50", "setting": "Hela cells; Homo sapiens, HeLa, read-out: IC50, as PTX concentration", "value": 0.02, "unit": "µg/mL"}]}]}
